ChEMBL document CHEMBL3044672, “N9- and N7-(Chloromethyl Phenymethyl)Chloropurine Derivatives from , '-Dichloroxylenes: Synthesis and Anticancer Activity” (2005)

Key:
Type in all cases: functional
CCRF-CEM = assay: Cytotoxicity against Homo sapiens (human) CCRF-CEM cells after 48 hr by sulforhodamine B assay
OVCAR-4 = assay: Cytotoxicity against Homo sapiens (human) OVCAR4 cells after 48 hr by sulforhodamine B assay; conditions: OVCAR-4, 48 h
UACC-257 = assay: Cytotoxicity against Homo sapiens (human) UACC257 cells after 48 hr by sulforhodamine B assay; conditions: UACC-257, 48 h
HOP-62 = assay: Cytotoxicity against Homo sapiens (human) HOP62 cells after 48 hr by sulforhodamine B assay; conditions: HOP-62, 48 h
NCI-H23 = assay: Cytotoxicity against Homo sapiens (human) NCI-H23 cells after 48 hr by sulforhodamine B assay; conditions: NCI-H23, 48 h
RXF 393 = assay: Cytotoxicity against Homo sapiens (human) RXF393 cells after 48 hr by sulforhodamine B assay; conditions: RXF 393, 48 h
[1] = Cytotoxicity against Homo sapiens (human) NCI-ADR-RES cells after 48 hr by sulforhodamine B assay
MCF7 = assay: Cytotoxicity against Homo sapiens (human) MCF7 cells assessed as cell growth at 10^-4 M after 48 hr by Alamar blue assay; conditions: MCF7, 48 h, read-out: Activity
TK-10 = assay: Cytotoxicity against Homo sapiens (human) TK10 cells after 48 hr by sulforhodamine B assay; conditions: TK-10, 48 h
HCC 2998 = assay: Cytotoxicity against Homo sapiens (human) HCC2998 cells after 48 hr by sulforhodamine B assay; conditions: HCC 2998, 48 h
HCT-15 = assay: Cytotoxicity against Homo sapiens (human) HCT15 cells after 48 hr by sulforhodamine B assay; conditions: HCT-15, 48 h
UACC-62 = assay: Cytotoxicity against Homo sapiens (human) UACC62 cells after 48 hr by sulforhodamine B assay; conditions: UACC-62, 48 h
SF-268 = assay: Cytotoxicity against Homo sapiens (human) SF268 cells after 48 hr by sulforhodamine B assay; conditions: SF-268, 48 h
HCT-116 = assay: Cytotoxicity against Homo sapiens (human) HCT116 cells after 48 hr by sulforhodamine B assay; conditions: HCT-116, 48 h
A549 = assay: Cytotoxicity against Homo sapiens (human) A549 cells after 48 hr by sulforhodamine B assay; conditions: A549, 48 h
LOX IMVI = assay: Cytotoxicity against Homo sapiens (human) LOXIMVI cells after 48 hr by sulforhodamine B assay
COLO 205 = assay: Cytotoxicity against Homo sapiens (human) COLO205 cells after 48 hr by sulforhodamine B assay; conditions: COLO 205, 48 h
Hs-578T = assay: Cytotoxicity against Homo sapiens (human) Hs 578T cells after 48 hr by sulforhodamine B assay
RPMI-8226 = assay: Cytotoxicity against Homo sapiens (human) RPMI8226 cells after 48 hr by sulforhodamine B assay; conditions: RPMI-8226, 48 h
K562 = assay: Cytotoxicity against Homo sapiens (human) K562 cells after 48 hr by sulforhodamine B assay; conditions: K562, 48 h
KM12 = assay: Cytotoxicity against Homo sapiens (human) KM12 cells after 48 hr by sulforhodamine B assay; conditions: KM12, 48 h
NCI-H522 = assay: Cytotoxicity against Homo sapiens (human) NCI-H522 cells after 48 hr by sulforhodamine B assay; conditions: NCI-H522, 48 h
MOLT-4 = assay: Cytotoxicity against Homo sapiens (human) MOLT4 cells after 48 hr by sulforhodamine B assay; conditions: MOLT-4, 48 h
NCI-H460 = assay: Cytotoxicity against Homo sapiens (human) NCI-H460 cells assessed as cell growth at 10^-4 M after 48 hr by Alamar blue assay; conditions: NCI-H460, 48 h, read-out: Activity
SK-OV-3 = assay: Cytotoxicity against Homo sapiens (human) SKOV3 cells after 48 hr by sulforhodamine B assay; conditions: SK-OV-3, 48 h
MDA-MB-231 = assay: Cytotoxicity against Homo sapiens (human) MDA-MB-231 cells after 48 hr by sulforhodamine B assay; conditions: MDA-MB-231, 48 h
[2] = read-out: LC50 (the source's name)

In the case of `ClCc1ccc(Cn2cnc3c(Cl)ncnc32)cc1`, the GI50 (CCRF-CEM) was 510 nM, the TGI (CCRF-CEM) was greater than 100 µM and the CC50 (CCRF-CEM; [2]) was greater than 100 µM. It also gave a GI50 (OVCAR-4) of 2450 nM, an LC50 (concentration killing 50% of cells) (OVCAR-4) greater than 100 µM and a TGI (OVCAR-4) of 6.6 µM. For the same compound, the GI50 (UACC-257) was 7.41 µM, the LC50 (concentration killing 50% of cells) (UACC-257) was 97.7 µM and the TGI (UACC-257) was 28.8 µM. The GI50 (HOP-62) was 1940 nM, the TGI (HOP-62) was 6.76 µM and the CC50 (HOP-62; [2]) was 32.4 µM. The GI50 (NCI-H23) was 660 nM, the TGI (NCI-H23) was 2450 nM and the CC50 (NCI-H23; [2]) was 7.76 µM. The GI50 (RXF 393) was 2300 nM, the TGI (RXF 393) was 5.49 µM and the CC50 (RXF 393; [2]) was greater than 100 µM. For the same compound, the GI50 [1] was 1510 nM, the LC50 (concentration killing 50% of cells) [1] was 38.9 µM and the TGI [1] was 5.49 µM. The growth at 100 µM (MCF7) was 7%, the GI50 (TK-10) was 1090 nM and the TGI (TK-10) was 4.67 µM. It also gave a CC50 (TK-10; [2]) of 22.9 µM, a GI50 (HCC 2998) of 660 nM and a TGI (HCC 2998) of 2040 nM. It also gave a CC50 (HCC 2998; [2]) of 5.12 µM, a GI50 (HCT-15) of 1950 nM and a TGI (HCT-15) of 12.6 µM. It also gave a CC50 (HCT-15; [2]) of 63.1 µM, a GI50 (UACC-62) of 1230 nM and an LC50 (concentration causing 50% net cell kill) (UACC-62) of 9.45 µM. The TGI (UACC-62) was 33.9 µM, the GI50 (SF-268) was 640 nM and the TGI (SF-268) was 2880 nM. It also gave a CC50 (SF-268; [2]) of 9.33 µM, a GI50 (HCT-116) of 1120 nM and a TGI (HCT-116) of 2450 nM. For the same compound, the CC50 (HCT-116; [2]) was 25.1 µM, the GI50 (A549) was 1380 nM and the TGI (A549) was 18.2 µM. It also gave a CC50 (A549; [2]) of 51.3 µM, a GI50 (LOX IMVI) of 1000 nM and an LC50 (LOX IMVI) of 13.5 µM. It also gave a TGI (LOX IMVI) of 3.46 µM, a GI50 (COLO 205) of 2230 nM and a TGI (COLO 205) greater than 100 µM. The CC50 (COLO 205; [2]) was greater than 100 µM, the GI50 (Hs-578T) was 10.2 µM and the LC50 (Hs-578T) was greater than 100 µM. The TGI (Hs-578T) was 38.9 µM, the GI50 (RPMI-8226) was 2130 nM and the TGI (RPMI-8226) was 9.34 µM. It also gave a CC50 (RPMI-8226; [2]) greater than 100 µM, a GI50 (K562) of 2910 nM and a TGI (K562) greater than 100 µM. The CC50 (K562; [2]) was greater than 100 µM, the GI50 (KM12) was 2140 nM and the TGI (KM12) was 10.2 µM. The CC50 (KM12; [2]) was 95.5 µM, the GI50 (NCI-H522) was 3.54 µM and the TGI (NCI-H522) was greater than 100 µM. It also gave a CC50 (NCI-H522; [2]) greater than 100 µM, a GI50 (MOLT-4) of 4.78 µM and a TGI (MOLT-4) greater than 100 µM. For the same compound, the CC50 (MOLT-4; [2]) was greater than 100 µM, the growth at 100 µM (NCI-H460) was 0% and the GI50 (SK-OV-3) was 3.38 µM. For the same compound, the LC50 (SK-OV-3) was 91.2 µM, the TGI (SK-OV-3) was 13.8 µM and the GI50 (MDA-MB-231) was 1770 nM. For the same compound, the LC50 (MDA-MB-231) was 8.7 µM and the TGI (MDA-MB-231) was 3.89 µM.
